Measurements published in US8088822B2, “Use of fenretinide or bioactive derivatives thereof and pharmaceutical compositions comprising the same” (priority 2008, dated 2012).
Read-outs that look alike come from different tables or passages of the source.

Columns and labels:
U937 = experiment: Growth inhibition and combination index in AML cell line U937; format: cell-based; settings: U937, single agent
Description: The combination Index (CI) was used to test the combination effect of fenretinide and Ara-C on growth inhibition in AML cell line U937. The CI was calculated according to the classic isobologram equation: CI=d1/D1+d2/D2. In this equation, D1 and D2 represent the doses of drug 1 and drug 2 alone, required to produce x % effect, and d1 and d2 are the doses of drugs 1 and 2 in combination required to produce the same effect. And CI<1, CI>1 and CI=1 represent the synergism, […], respectively.

ALL CD34+ cells = experiment: Viability of ALL CD34+ cells; format: cell-based; settings: Homo sapiens
Text: (§1) Fresh bone marrow (BM) cells were obtained from 38 patients with CML and 5 non-leukemic donors, 25 AML, 17 ALL, and 8 normal specimens with informed consent according to the Declaration of Helsinki. Approval was obtained from Institutional Review Board at the School of Medicine in Shanghai Jiao Tong University. BM mononuclear cells were isolated by Ficoll density gradient centrifugation (Shanghai Second Reagent Factory, Shanghai, China). CD34^+ Cell were selected using EasySep® Human CD34 Positive Selection kit (Stem Cell Technologies, Vancouver, BC, Canada) according to the manufacturer's instructions. The purity of CD34 cells ranged between 92 and 98% in all samples detennined by flow cytometry. The CD34^+ cells were cultured in a serum-free medium (StemPro 34; Gibco BRL, Gaithersburg, Md.) supplemented with growth factors (PeproTech, London, United Kingdom) (20). The growth factors consisted of GM-CSF (200 pg/mL), G-CSF (1 ng/mL); SCF (200 pg/mL); LIF (50 pg/mL), MIP-1α (200 pg/mL) and IL-6 (1 ng/mL).
(§2) Primitive AML and CML subpopulations (CD34^+ cells) were identified using CD34-PE in combination with CD38-APC, and followed by double-labeling with 7AAD and Annexin V antibodies for apoptosis assessment. […] Subsequently, the samples were incubated at room temperature for 15 minutes and analyzed by flow cytometry. […]

AML CD34+ cells = experiment: Apoptosis/viability of AML CD34+ cells (annexin-V FITC/7AAD); format: cell-based, human; settings: for viability at 5 µM: 5 μM fenretinide
Text: as §1
(§3) Primitive AML and CML subpopulations (CD34^+ cells) were identified using CD34-PE in combination with CD38-APC, and followed by double-labeling with 7AAD and Annexin V antibodies for apoptosis assessment. The CD34^+ cells were first stained with antibodies against the surface markers CD34-PE and CD38-APC (Beckman Coulter, Fullerton, Calif.) and incubated at room temperature for 15 minutes. Cells were then washed with cold PBS and resuspended in 200 μL annexin V 1×binding buffer (10 mM HEPES/NaOH, pH 7.4, 140 mM NaCl, 2.5 mM CaCl2), 5 μL AnnexinV-FITC (BD Phanningen, San Diego, Calif.) and 7-aminoactinomycin (7-AAD, 0.25 mg/mL) (Molecular Probes, Eugene, Oreg.). Subsequently, the samples were incubated at room temperature for 15 minutes and analyzed by flow cytometry.
(§4) Primary acute leukemia cells from specimens including AML and ALL are mostly quiescent, especially for the subpopulations of leukemic CD34^+ cells (Guan and Hogge, 2000). To verify if this quiescent leukemia cells are sensitive to fenretinide, we compared the effects of fenretinide on primary leukemia versus normal specimens during short-term suspension culture. CD34^+ cells were isolated from primary acute leukemia specimens, and subjected to DNA content analysis through propidium iodide staining and followed by flow cytometry. The majority of isolated CD34^+ cells from AML and ALL were in G0/G1 phase of the cell cycle, indicating the quiescent feature of leukemia CD34^+ cells (FIG. 4A). Then, apoptosis profiles of AML CD34^+ cells and normal CD34^+ cells were examined through annexin-V FITC and 7AAD double staining (FIG. 4B).

[1] = test system: normal hematopoietic CD34+ cells; experiment: Apoptosis/viability of normal hematopoietic CD34+ cells; format: cell-based, human
Text: as §1, §3, §4

[2] = test system: CD34+CD38+ CML progenitor cells; experiment: Apoptosis (Annexin V/7AAD, FACS) of CML progenitor cells; format: cell-based, human
Text: as §1, §3
It would be of significance to find out the subpopulations specifically targeted by fenretinide. We divided the CML patient specimens into mononuclear cells and CD34^+ cells. The CD34^+ CML cells are primitive cells including CML stem and progenitor cells. […]

CML mononuclear cells = experiment: Apoptosis of CML mononuclear cells; format: cell-based, human; settings: CML patient specimens
Text: as §1, §2

[3] = test system: CD34+CD38− CML stem cells (LSC); experiment: Apoptosis (Annexin V/7AAD, FACS) of CML stem cells; format: cell-based, human
Text: as §1, §3
It would be of significance to find out the subpopulations specifically targeted by fenretinide. We divided the CML patient specimens into mononuclear cells and CD34^+ cells. The CD34^+ CML cells are primitive cells including CML stem and progenitor cells. Upon treated with fenretinide, CD34^+ CML cells were further subdivided into CD34^+CD38^− enriched with CML stem cells and CD34^+CD38^+ with CML progenitor cells. After gating on primitive CML subfractions, 7AAD and Annexin V antibodies were utilized for apoptosis assessment by FACS. […] The difference of apoptosis rates between CD34^+CD38^+ and CD34^+CD38^− cells was significant (p<0.001). The effects of the fenretinide exposures on the leukemia stem cells (LSC) and normal hematopoietic stem cells (HSC) in the CD34^+CD38^− cells were shown in a representative specimen (FIG. 3B). The specimens in 5 CML patients had the similar effects on the LSC and in 5 non-leukemic donors had the similar patterns as that of nonnal HSC.

[4] = test system: oxidative and ER stress genes; experiment: Real-time quantitative RT-PCR of oxidative and ER stress genes in CML CD34+ cells; format: cell-based, human; settings: fenretinide-treated CML CD34+ cells
Text: Real-time quantitative RT-PCR was preformed on ABI7900 thermocycler detection system using SYBR Green I (Applied Biosystems, Foster City, Calif.).
Fenretinide preferentially targets more primitive leukemia stem and progenitor cells (Example 3 and Example 4), and mechanisms are involved in ROS-dependent apoptosis in a panel of leukemia cell lines. Additionally, the process of fenretinide-induced apoptosis is modulated by a large number of oxidative and ER stress genes (Example 5 and Example 6). It is of significant value to further evaluate whether fenretinide exerts similar mechanism on primitive leukemia stem and progenitor cells. Thus, we isolated CD34^+ cells from CML patients, which were subjected to real-time quantitative RT-PCR for oxidative and ER stress genes identified based on microarray analysis of fenretinide-treated K562 cells.

## CC1=C(/C=C/C(C)=C/C=C/C(C)=C/C(=O)Nc2ccc(O)cc2)C(C)(C)CCC1 [fenretinide, N-(4-hydroxyphenyl)retinamide]
U937
  dose alone required for growth inhibition rate of 65.47%: 2.72 µM
ALL CD34+ cells; 5 μM fenretinide
  viability at 5 µM: 58%
ALL CD34+ cells; 7.5 μM fenretinide
  viability at 7.5 µM: 20.9%
AML CD34+ cells; Homo sapiens, 18 h, read-out: viability of most resistant AML specimen (AML #8)
  viability at 5 µM: 89.7%
AML CD34+ cells; Homo sapiens, 18 h, read-out: viability of most sensitive AML specimen (AML #20)
  viability at 5 µM: 0.5%
AML CD34+ cells; Homo sapiens, 18 h in culture, read-out: mean viability of AML CD34+ cells
  viability at 5 µM: 45.4%
AML CD34+ cells; Homo sapiens, 7.5 μM fenretinide, read-out: mean viability of AML CD34+ specimens
  viability at 7.5 µM: 12.2%
AML CD34+ cells; short-term suspension culture
  apoptosis induction in AML CD34+ cells: time- and dose-dependant manner
[1]; 5 μM fenretinide
  viability of normal hematopoietic CD34+ cells: 97.1%
[1]; 7.5 μM fenretinide
  viability of normal hematopoietic CD34+ cells: 58.1%
[1]; from viability of normal CD34+ cells
  safe dose (presumed): below 5 μM
[1]; short-term suspension culture
  response of normal hematopoietic CD34+ cells: relative resistant
[2]; 2 μM fenretinide
  apoptosis of CD34+CD38+ cells: 17.83%±6.01%
[2]; 4 μM fenretinide
  apoptosis of CD34+CD38+ cells: 30.60%±4.93%
[2]; 6 μM fenretinide
  apoptosis of CD34+CD38+ cells: 33.08%±19.43%
CML mononuclear cells
  apoptosis in mononuclear cells: little apoptosis
[3]; 2 μM fenretinide
  apoptosis of CD34+CD38− cells: 60.58%±2.76%
[3]; 4 μM fenretinide
  apoptosis of CD34+CD38− cells: 63.75%±8.49%
[3]; 6 μM fenretinide
  apoptosis of CD34+CD38− cells: 62.83%±9.72%
[3]; representative specimen
  reduction of LSC in the CD34+CD38− cells: 80.3%
[3]; representative specimen, fenretinide alone or co-treatment with imatinib
  apoptosis in the LSC (CML stem cells): 53.3%
[4]
  expression of genes involved in oxidative and ER stress: highly up-regulated
